From patent US8840938B2, “Bioavailability enhancing composition” (priority 2011, dated 2014)
Where two headings read alike, the source gives them in different places.

How the values were obtained:
TRPV1 = TRPV1 (Homo sapiens, UniProt Q8NER1); assay: Scoville Heat Unit (SHU) as a measure of TRPV1 activation; settings: for Adjusted SHU: SHU of pure agonist times percent agonist in the herb, totals per herb; for SHU of pure Agonist: pure TRPV1 agonist, per mg
Experimental: SHU as used herein as a measure of TRPV1 activation. SHU mg is calculated as the SHU of a TRPV1 agonist multiplied by the milligrams of the TRPV1 agonist in a compound.

[1] = cited from earlier work; for Peak theophylline plasma levels / levels of theophylline (absorption) / mean residence times of theophylline: rabbits, oral theophylline 20 mg/kg
[2] = concomitant ground capsicum fruit suspension

Sequence of TRPV1 (Q8NER1 whole entry, species assumed): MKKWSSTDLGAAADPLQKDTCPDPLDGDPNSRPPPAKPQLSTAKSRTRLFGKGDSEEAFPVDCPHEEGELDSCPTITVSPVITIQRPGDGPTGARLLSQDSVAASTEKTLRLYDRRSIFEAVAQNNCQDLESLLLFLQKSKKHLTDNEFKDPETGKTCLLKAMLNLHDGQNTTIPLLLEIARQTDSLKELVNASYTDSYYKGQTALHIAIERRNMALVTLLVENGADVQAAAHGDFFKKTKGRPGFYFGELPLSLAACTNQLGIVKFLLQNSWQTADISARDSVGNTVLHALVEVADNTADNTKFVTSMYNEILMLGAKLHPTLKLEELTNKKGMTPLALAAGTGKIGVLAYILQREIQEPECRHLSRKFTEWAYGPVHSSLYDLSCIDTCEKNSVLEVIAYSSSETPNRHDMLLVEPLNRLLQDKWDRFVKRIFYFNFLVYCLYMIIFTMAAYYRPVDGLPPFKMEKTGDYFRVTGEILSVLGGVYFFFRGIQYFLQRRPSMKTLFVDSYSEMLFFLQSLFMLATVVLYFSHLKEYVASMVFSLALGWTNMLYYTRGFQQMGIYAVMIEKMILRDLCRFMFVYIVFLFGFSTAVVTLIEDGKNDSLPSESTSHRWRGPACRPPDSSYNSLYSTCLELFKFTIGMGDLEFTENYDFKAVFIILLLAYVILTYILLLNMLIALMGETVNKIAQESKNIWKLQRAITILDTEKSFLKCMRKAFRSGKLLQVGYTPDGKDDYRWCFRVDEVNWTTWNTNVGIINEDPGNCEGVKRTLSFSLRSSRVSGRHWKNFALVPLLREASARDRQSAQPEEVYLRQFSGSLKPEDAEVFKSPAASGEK

Row | Compound | Adjusted SHU (TRPV1) | SHU of pure Agonist (TRPV1) | further results
1 | C/C=C/C=C/C=C/CC/C=C/C(=O)NCC(C)C [β-sanshool] | 49 SHU | 70,000 SHU | –
2 | C/C=C/C=C/C=C\CC/C=C/C=C/C(=O)NCC(C)C [γ-sanshool] | 209 SHU | 110,000 SHU | –
3 | C/C=C/C=C/C=C\CC/C=C/C(=O)NCC(C)(C)O [α-hydroxy-sanshool] | 619 SHU | 26,000 SHU | –
4 | C/C=C/C=C/C=C/CC/C=C/C(=O)NCC(C)(C)O [β-hydroxy-sanshool] | 35 SHU | 13,000 SHU | –
5 | COc1cc(CNC(=O)CCCC/C=C/C(C)C)ccc1O [capsaicin] | 40,000 SHU | 16,000,000 SHU | –
6 | C/C=C/C=C/C=C\CC/C=C/C(=O)NCC(C)C [α-sanshool] | 368 SHU | 80,000 SHU | –
7 | CCCCC/C=C/C(=O)CCc1ccc(O)c(OC)c1 [Formulation 6-shogaol, 6-shogaol] | 9,600 SHU | 160,000 SHU | –
8 | C/C=C/C=C/C=C/CC/C=C/C=C/C(=O)NCC(C)C [δ-sanshool] | 22 SHU | 110,000 SHU | –
9 | Cn1c(=O)c2[nH]cnc2n(C)c1=O [theophylline] | – | – | Peak theophylline plasma levels [1, 2]: 8.78 ± 0.98 mg/L; levels of theophylline (absorption) [1, 2]: 138.32+/−17.27 mg H/liter; mean residence times of theophylline [1, 2]: 20.98+/−5.75 H; Peak theophylline plasma levels ([1]; without capsicum): 6.65 ± 0.76 mg/L; levels of theophylline (absorption) ([1]; without capsicum): 86.06+/−9.78 mg H/liter; mean residence times of theophylline ([1]; without capsicum): 14.94+/−2.97 H; theophylline plasma levels after second administration of capsicum suspension ([1]; second capsicum suspension 11 hours later, every rabbit): new rise
10 | CCCCC[C@H](O)CC(=O)CCc1ccc(O)c(OC)c1 [Formulation 6-gingerol, 6-gingerol] | 3,600 SHU | 60,000 SHU | –
